{"source": "patent US12187723B2", "about": "(BRISTOL-MYERS SQUIBB COMPANY, priority 2019, dated 2025)", "key": {"human TLR7": {"molecular_target": "T1, human TLR7 (Homo sapiens, UniProt Q9NYK1)", "T1 construct": "host or cells: HEK-Blue cells", "T1 sequence (Q9NYK1 27-1049)": "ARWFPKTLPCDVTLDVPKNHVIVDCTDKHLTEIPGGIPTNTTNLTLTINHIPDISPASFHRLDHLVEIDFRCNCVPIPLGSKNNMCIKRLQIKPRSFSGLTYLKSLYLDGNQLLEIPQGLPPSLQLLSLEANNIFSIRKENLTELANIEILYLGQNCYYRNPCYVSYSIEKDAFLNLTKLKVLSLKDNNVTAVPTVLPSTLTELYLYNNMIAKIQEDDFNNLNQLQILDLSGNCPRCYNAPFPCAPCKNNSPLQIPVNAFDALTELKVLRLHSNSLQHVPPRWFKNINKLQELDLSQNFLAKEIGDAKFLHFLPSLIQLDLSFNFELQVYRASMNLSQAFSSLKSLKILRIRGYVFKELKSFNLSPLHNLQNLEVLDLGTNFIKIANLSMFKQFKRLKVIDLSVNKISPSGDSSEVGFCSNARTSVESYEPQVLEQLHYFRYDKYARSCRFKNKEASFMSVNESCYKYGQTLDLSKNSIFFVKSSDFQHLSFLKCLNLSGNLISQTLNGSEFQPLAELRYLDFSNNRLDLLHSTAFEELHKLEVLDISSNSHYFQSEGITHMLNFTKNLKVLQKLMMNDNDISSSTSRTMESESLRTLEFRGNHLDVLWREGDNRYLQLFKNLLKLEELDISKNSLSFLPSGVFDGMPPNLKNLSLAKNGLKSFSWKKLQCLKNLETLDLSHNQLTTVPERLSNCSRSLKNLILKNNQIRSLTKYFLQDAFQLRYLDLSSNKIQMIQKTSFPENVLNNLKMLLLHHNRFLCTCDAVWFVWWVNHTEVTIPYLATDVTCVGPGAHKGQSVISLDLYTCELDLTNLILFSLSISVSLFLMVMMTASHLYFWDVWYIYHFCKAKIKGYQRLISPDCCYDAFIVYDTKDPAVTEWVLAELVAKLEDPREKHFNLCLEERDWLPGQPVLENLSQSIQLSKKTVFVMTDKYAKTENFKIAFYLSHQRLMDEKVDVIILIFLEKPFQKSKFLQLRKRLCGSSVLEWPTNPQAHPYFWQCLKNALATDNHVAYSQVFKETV", "experiment": "TLR7 inhibition reporter assay (HEK-Blue SEAP)", "type": "cell-based", "conditions": "HEK-Blue cells overexpressing human TLR7, gardiquimod 7.5 μM, 22 hour incubation", "in_short": "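HEK-Blue reporter cells (15,000/well TLR7, 20,000 TLR8) exposed to compound over 0.05 nM–50 μM, agonist-stimulated (R848 for TLR8, gardiquimod for TLR7), 22 h at 37 °C, 5% CO2. SEAP read with HEK-Blue Detection; % inhibition relative to agonist-plus-DMSO and known-inhibitor controls.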"}, "human TLR9": {"molecular_target": "T2, human TLR9 (Homo sapiens, UniProt Q9NR96)", "T2 construct": "host or cells: HEK-Blue cells", "T2 sequence (Q9NR96 26-1032)": "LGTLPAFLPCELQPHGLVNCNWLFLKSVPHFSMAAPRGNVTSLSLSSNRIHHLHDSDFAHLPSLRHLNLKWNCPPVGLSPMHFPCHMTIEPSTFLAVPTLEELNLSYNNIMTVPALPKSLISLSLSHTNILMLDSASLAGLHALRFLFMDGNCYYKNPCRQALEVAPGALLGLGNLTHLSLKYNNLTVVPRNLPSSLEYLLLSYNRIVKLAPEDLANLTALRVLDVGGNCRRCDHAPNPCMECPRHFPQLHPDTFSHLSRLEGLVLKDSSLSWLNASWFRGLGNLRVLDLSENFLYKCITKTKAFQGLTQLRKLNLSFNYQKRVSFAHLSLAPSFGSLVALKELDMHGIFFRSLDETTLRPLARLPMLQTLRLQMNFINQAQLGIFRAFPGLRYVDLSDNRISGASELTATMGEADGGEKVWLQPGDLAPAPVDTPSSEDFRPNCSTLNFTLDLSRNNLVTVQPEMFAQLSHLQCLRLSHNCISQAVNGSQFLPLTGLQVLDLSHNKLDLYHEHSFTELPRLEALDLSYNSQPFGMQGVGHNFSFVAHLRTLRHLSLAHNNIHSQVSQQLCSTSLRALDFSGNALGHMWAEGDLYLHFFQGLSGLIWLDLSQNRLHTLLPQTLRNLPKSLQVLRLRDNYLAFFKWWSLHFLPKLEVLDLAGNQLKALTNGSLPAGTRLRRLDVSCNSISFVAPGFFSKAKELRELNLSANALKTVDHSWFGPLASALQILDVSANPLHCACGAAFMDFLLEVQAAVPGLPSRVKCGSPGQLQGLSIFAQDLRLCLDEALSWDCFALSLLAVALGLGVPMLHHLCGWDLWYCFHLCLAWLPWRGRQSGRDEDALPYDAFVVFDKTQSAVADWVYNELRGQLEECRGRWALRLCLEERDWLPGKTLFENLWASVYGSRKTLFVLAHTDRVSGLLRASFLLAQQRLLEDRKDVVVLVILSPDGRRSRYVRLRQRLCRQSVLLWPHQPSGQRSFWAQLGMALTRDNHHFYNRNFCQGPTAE", "experiment": "TLR9 inhibition reporter assay (HEK-Blue SEAP)", "type": "cell-based", "conditions": "HEK-Blue cells overexpressing human TLR9, ODN2006 5 nM, 22 hour incubation", "in_short": "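Agonists used: gardiquimod 7.5 μM (TLR7), R848 15.9 μM (TLR8), ODN2006 5 nM (TLR9), added after 30 min room-temperature compound pre-treatment (0.05 nM–50 μM) of receptor-overexpressing HEK-Blue cells. SEAP reporter (NF-κB/AP-1 driven) read after 22 h at 37 °C; inhibition scaled between agonist+DMSO and reference-inhibitor wells.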"}}, "data": [{"smiles": "Cc1cc2c(cc1-c1cc(C)c3ncnn3c1)[nH]c(=O)n2[C@H]1CCCN(CC(=O)N(C)C)C1", "note": "[Example 93, (S)—N,N-dimethyl-2-(3-(6-methyl-5-(8-methyl-[1,2,4]triazolo[1,5-a]pyridin-6-yl)-2-oxo-2,3-dihydro-1H-benzo[d]imidazol-1-yl)piperidin-1-yl)acetamide]", "values": [{"measurement": "IC50", "setting": "human TLR7", "result": 0.565, "unit": "µM"}, {"measurement": "IC50", "setting": "human TLR9", "result": 12.6, "unit": "µM"}]}]}
